Columns and labels:
[1] = test system: keratinocyte migration (MMP-1 dependent); details: collagen type I matrix in vitro; cited from earlier work

| melting point [°C] | Structure (SMILES) | inhibition of keratinocyte migration [1] |
| --- | --- | --- |
| 52 to 63 | O=C(C[C@@H](CCCC1CCCCC1)c1nc(C(=O)N2CC(N3CCOCC3)C2)no1)NO [Example 14, (3R)-6-Cyclohexyl-N-hydroxy-3-(3-{[3-(4-morpholinyl)-1-azetidinyl]carbonyl}-1,2,4-oxadiazol-5-yl)hexanamide] |  |
|  | CNC(=O)[C@H](Cc1ccc(OC)cc1)NC(=O)[C@@H](CC(=O)NO)CC(C)C [SC44463] | completely inhibited |
